Experimental data: patent US9096560B2, “5-heterocyclylalkyl-3-hydroxy-2-phenylcyclopent-2-enones as herbicides” (Syngenta Limited, priority 2008, dated 2015)

Tests used:
Format in all cases: in vivo
Lolium perenne (LOLPE) [1] = assay: Example B pre-emergence herbicidal test, LOLPE; settings: Lolium perenne, 312 h, rate 250 g/ha, evaluated after 13 days, 100=total damage to plant, 0=no damage to plant
Method in brief: (§1)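 After sowing in standard soil, pots spent a day in the glasshouse (24/16° C, 14 h photoperiod, 65% humidity) before spraying with compound in acetone/water 50:50 with 0.5% Tween 20. Watering followed twice a day, and plants were evaluated 13 days on, with 100 meaning complete damage.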

[2] = test system: Alopecurus myosuroides (ALOMY); assay: Example B pre-emergence herbicidal test, ALOMY; settings: Alopecurus myosuroides, 312 h, rate 250 g/ha, evaluated after 13 days, 100=total damage to plant, 0=no damage to plant
Method in brief: as §1

[3] = test system: Echinochloa crus-galli (ECHCG); assay: Example B pre-emergence herbicidal test, ECHCG; settings: Echinochloa crus-galli, 312 h, rate 250 g/ha, evaluated after 13 days, 100=total damage to plant, 0=no damage to plant
Method in brief: as §1

Avena fatua (AVEFA) [4] = assay: Example B pre-emergence herbicidal test, AVEFA; settings: Avena fatua, 312 h, rate 250 g/ha, evaluated after 13 days, 100=total damage to plant, 0=no damage to plant
Method in brief: as §1

Lolium perenne (LOLPE) [5] = assay: Example B post-emergence herbicidal test, LOLPE; settings: Lolium perenne, 312 h, rate 250 g/ha, evaluated after 13 days, scale 0-100, read-out: Post-emergence activity LOLPE (100=total damage to plant; 0=no damage to plant)
Method in brief: (§2)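 Plants grown 8 days in glasshouse (24/16 °C day/night, 14 h light, 65% humidity), then sprayed with aqueous solution from acetone/water (50:50) formulation with 0.5% Tween 20. Damage scored 13 days later on a 0–100 scale (100 = total damage).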

[6] = test system: Alopecurus myosuroides (ALOMY); assay: Example B post-emergence herbicidal test, ALOMY; settings: Alopecurus myosuroides, 312 h, rate 250 g/ha, evaluated after 13 days, scale 0-100, read-out: Post-emergence activity ALOMY (100=total damage to plant; 0=no damage to plant)
Method in brief: as §2

[7] = test system: Echinochloa crus-galli (ECHCG); assay: Example B post-emergence herbicidal test, ECHCG; settings: Echinochloa crus-galli, 312 h, rate 250 g/ha, evaluated after 13 days, scale 0-100, read-out: Post-emergence activity ECHCG (100=total damage to plant; 0=no damage to plant)
Method in brief: as §2

Avena fatua (AVEFA) [8] = assay: Example B post-emergence herbicidal test, AVEFA; settings: Avena fatua, 312 h, rate 250 g/ha, evaluated after 13 days, scale 0-100, read-out: Post-emergence activity AVEFA (100=total damage to plant; 0=no damage to plant)
Method in brief: as §2

SMILES | pest or weed control at 250 g/ha (Lolium perenne (LOLPE) [1]) [%] | pest or weed control at 250 g/ha [2] [%] | pest or weed control at 250 g/ha [3] [%] | pest or weed control at 250 g/ha (Avena fatua (AVEFA) [4]) [%] | pest or weed control at 250 g/ha (Lolium perenne (LOLPE) [5]) [%] | pest or weed control at 250 g/ha [6] [%] | pest or weed control at 250 g/ha [7] [%] | pest or weed control at 250 g/ha (Avena fatua (AVEFA) [8]) [%]
Cc1cc(C)c(C2C(=O)C(C)C(CC3CCOC3)C2=O)c(C)c1 (centres unmarked) [Compound T29] | 100 | 70 | 90 | 50 | 90 | 70 | 80 | 60
Cc1cc(C)c(C2C(=O)CC(C)(CC3CCOC3)C2=O)c(C)c1 (centres unmarked) [Compound T30] | 90 | 60 | 80 | 30 | 80 | 80 | 80 | 70
Cc1cc(C)c(C2C(=O)C/C(=C\C3CCN(S(C)(=O)=O)C3)C2=O)c(C)c1 (centres unmarked) [Compound T31] | 90 | 80 | 80 | 90 | 70 | 90 | 80 | 90
COC(=O)N1CCC(/C=C2\CC(=O)C(c3c(C)cc(C)cc3C)C2=O)C1 (centres unmarked) [Compound T32] | 100 | 70 | 100 | 90 | 90 | 90 | 90 | 90
CCSC(=O)N1CCC(/C=C2\CC(=O)C(c3c(C)cc(C)cc3C)C2=O)C1 (centres unmarked) [Compound T33] | 90 | 60 | 90 | 50 | 60 | 60 | 60 | 70
Cc1cc(C)c(C2C(=O)C/C(=C\C3CCN(C(=O)c4ccccc4)C3)C2=O)c(C)c1 (centres unmarked) [Compound T34] | 90 | 70 | 100 | 70 | 90 | 90 | 100 | 100
CC(=O)N1CCC(CC2CC(=O)C(c3c(C)cc(C)cc3C)C2=O)C1 (centres unmarked) [Compound T35] | 70 | 30 | 40 | 10 | 70 | 70 | 70 | 60
Cc1cc(C)c(C2C(=O)CC(CC3CCN(S(C)(=O)=O)C3)C2=O)c(C)c1 (centres unmarked) [Compound T36] | 90 | 90 | 100 | 90 | 80 | 80 | 90 | 90
Cc1cc(C)c(C2C(=O)CC(C(O)C3CCOC(C)(C)C3)C2=O)c(C)c1 (centres unmarked) [Compound T38] | 70 | 90 | 100 | 40 | 100 | 100 | 100 | 100
Cc1cc(C)c(C2C(=O)C/C(=C\C3CCN(C(=O)OCc4ccccc4)CC3)C2=O)c(C)c1 (centres unmarked) [Compound T42] | 0 | 0 | 20 | 0 | 20 | 0 | 30 | 0
COC(=O)N1CCC(CC2CC(=O)C(c3c(C)cc(C)cc3C)C2=O)C1 (centres unmarked) [Compound T43] | 100 | 80 | 100 | 100 | 100 | 90 | 80 | 90
CCC1CCC(CC2CC(=O)C(c3c(C)cc(C)cc3C)C2=O)O1 (centres unmarked) [Compound T44] | 100 | 90 | 60 | 20 | 70 | 60 | 80 | 40
CC(=O)N1CCCCC1/C=C1\CC(=O)C(c2c(C)cc(C)cc2C)C1=O (centres unmarked) [Compound T46] | 10 | 50 | 10 | 10 | 40 | 60 | 60 | 50
Cc1cc(C)c(C2C(=O)C/C(=C\C3CCCCN3S(C)(=O)=O)C2=O)c(C)c1 (centres unmarked) [Compound T47] | 60 | 20 | 40 | 50 | 30 | 30 | 60 | 50
CC(=O)N1CCCCC1CC1CC(=O)C(c2c(C)cc(C)cc2C)C1=O (centres unmarked) [Compound T48] | 90 | 90 | 100 | 90 | 70 | 90 | 100 | 90
CCc1cc(C)cc(C)c1C1C(=O)CC(CC2CCOCC2)C1=O (centres unmarked) [Compound T50] | 100 | 100 | 100 | 100 | 100 | 100 | 100 | 100
Cc1cc(C)c(C2C(=O)CC(CC3CCCCN3S(C)(=O)=O)C2=O)c(C)c1 (centres unmarked) [Compound T51] | 100 | 80 | 80 | 90 | 60 | 70 | 70 | 80
Cc1cccc(C)c1C1C(=O)CC(CC2CCOCC2)C1=O (centres unmarked) [Compound T52] | 100 | 100 | 80 | 80 | 90 | 90 | 100 | 80
Cc1cc(C)c(C2C(=O)C/C(=C\C3CCN(C(=O)OC(C)(C)C)CC3)C2=O)c(C)c1 (centres unmarked) [Compound T54] | 100 | 80 | 100 | 50 | 70 | 80 | 80 | 80
Cc1cc(C)c(C2C(=O)CC(CC3CCN(C(=O)OC(C)(C)C)CC3)C2=O)c(C)c1 (centres unmarked) [Compound T55] | 100 | 80 | 90 | 60 | 60 | 70 | 70 | 50
CCc1cc(C)cc(C)c1C1C(=O)CC(CCC2CCOCC2)C1=O (centres unmarked) [Compound T58] | 100 | 90 | 100 | 90 | 90 | 100 | 100 | 90
CCc1cc(C)cc(C)c1C1C(=O)C/C(=C\C2CCOC2)C1=O (centres unmarked) [Compound T59] | 100 | 90 | 100 | 90 | 100 | 90 | 90 | 100
